Assay results: article PMC9556824, “Design, synthesis and computational study of new benzofuran hybrids as dual PI3K/VEGFR2 inhibitors targeting cancer” (Scientific Reports, 2022)
Like-named read-outs stand apart in the source and are kept apart here.

Key:
[1] = tested on: Hepatocellular carcinoma (HePG2); assay: Antitumor screening using MTT assay; assay type: cell-based, human; conditions: for IC50: mean ± SD, n = 3, read-out: In-vitro cytotoxicity IC50 (µM) HePG2; for viability at 1.56 µM / viability at 3.125 µM / viability at 6.25 µM / viability at 12.5 µM / viability at 25 µM / viability at 50 µM / viability at 100 µM: read-out: Average of Relative viability of cells (%)
Source text: (§2) Hepatocellular carcinoma (HePG2), mammary gland breast cancer (MCF-7), epithelioid carcinoma cervix cancer (Hela), and human prostate cancer were included on the panel (PC3). […] The cell lines were obtained from the American Type Culture Collection (ATCC) through VACSERA, a Cairo-based holding firm for biological goods and vaccines.
(§3) The panel consisted of hepatocellular carcinoma (HePG2), mammary gland breast cancer (MCF-7), epithelioid carcinoma cervix cancer (Hela) and human prostate cancer (PC3). Human lung fibroblast (WI38) was used to assay the cytotoxicity effect on normal cell. The cell lines were obtained from ATCC via Holding company for biological products and vaccines (VACSERA), Cairo, Egypt. The cytotoxic activity was defined as the concentration of the compound that causes 50% growth inhibition compared with the growth of untreated cells.

[2] = tested on: human lung fibroblast (WI38); assay: In vitro cytotoxicity against human normal cell line (MTT); assay type: cell-based; conditions: for Average of Relative viability of cells (%): WI38; for IC50: mean ± SD, n = 3
Source text: (§1) The anticancer agent's selectivity for cancer cells is a critical consideration for any researcher, as it can decrease the molecule's adverse effects on normal human cells.

[3] = tested on: HePG2, MCF-7, Hela, PC3 cell lines; assay: Antitumor screening using MTT assay, statements across several cell lines; assay type: cell-based, human; conditions: for anticancer activity towards the four / all assessed cell lines (grade): HePG2, MCF-7, Hela, PC3
Source text: as §2, §3

[4] = tested on: mammary gland breast cancer (MCF-7); assay: Antitumor screening using MTT assay; conditions: for Average of Relative viability of cells (%): MCF7; for viability at 1.56 µM / viability at 3.125 µM / viability at 6.25 µM / viability at 12.5 µM / viability at 25 µM / viability at 50 µM / viability at 100 µM: MCF7, read-out: Average of Relative viability of cells (%)
Source text: as §2, §3

[5] = tested on: epithelioid carcinoma cervix cancer (Hela); assay: Antitumor screening using MTT assay; conditions: for IC50: read-out: In-vitro cytotoxicity IC50 (µM) Hela; for viability at 1.56 µM / viability at 3.125 µM / viability at 6.25 µM / viability at 12.5 µM / viability at 25 µM / viability at 50 µM / viability at 100 µM: read-out: Average of Relative viability of cells (%)
Source text: as §2, §3

[6] = tested on: human prostate cancer (PC3); assay: Antitumor screening using MTT assay; conditions: for IC50: read-out: In-vitro cytotoxicity IC50 (µM) PC3; for viability at 1.56 µM / viability at 3.125 µM / viability at 6.25 µM / viability at 12.5 µM / viability at 25 µM / viability at 50 µM / viability at 100 µM: read-out: Average of Relative viability of cells (%)
Source text: as §2, §3

[7] = In vitro cytotoxicity against human normal cell line (MTT); assay type: cell-based; conditions: human, WI38, read-out: Average of Relative viability of cells (%); for viability at 1.56 µM: Conc. 1.56 µM; for viability at 3.125 µM: Conc. 3.125 µM; for viability at 6.25 µM: Conc. 6.25 µM; for viability at 12.5 µM: Conc. 12.5 µM; for viability at 25 µM: Conc. 25 µM; for viability at 50 µM: Conc. 50 µM; for viability at 100 µM: Conc. 100 µM
Source text: as §1

[8] = WI38 human lung fibroblast cells (normal cell line)
[9] = Homo sapiens, WI-38, human normal cell line WI38
[10] = Homo sapiens, MCF7, read-out: In-vitro cytotoxicity IC50 (µM) MCF-7
[11] = WI38 normal lung fibroblast cells

2-(benzofuran-2-yl)-1-(4-methylpiperazin-1-yl)ethanethione [Compound 3]
Average of Relative viability of cells (%) ([1]; Conc. 1.56 µM): 100%
Average of Relative viability of cells (%) ([1]; Conc. 3.125 µM): 100%
Average of Relative viability of cells (%) ([1]; Conc. 6.25 µM): 82.4%
Average of Relative viability of cells (%) ([1]; Conc. 12.5 µM): 76.1%
Average of Relative viability of cells (%) ([1]; Conc. 25 µM): 50.2%
Average of Relative viability of cells (%) ([1]; Conc. 50 µM): 42.8%
Average of Relative viability of cells (%) ([1]; Conc. 100 µM): 29.5%
IC50 [1]: 34.8 ± 2.5 µM
Average of Relative viability of cells (%) ([2]; Conc. 1.56 µM): 100%
Average of Relative viability of cells (%) ([2]; Conc. 3.125 µM): 100%
Average of Relative viability of cells (%) ([2]; Conc. 6.25 µM): 97.0%
Average of Relative viability of cells (%) ([2]; Conc. 12.5 µM): 85.3%
Average of Relative viability of cells (%) ([2]; Conc. 25 µM): 71.8%
Average of Relative viability of cells (%) ([2]; Conc. 50 µM): 59.2%
Average of Relative viability of cells (%) ([2]; Conc. 100 µM): 47.4%
IC50 ([2]; human normal cell line WI38): 78.5 ± 3.8 µM
anticancer activity towards the four / all assessed cell lines (grade) [3]: weak (51–100 (weak))
Average of Relative viability of cells (%) ([4]; Conc. 1.56 µM): 100%
Average of Relative viability of cells (%) ([4]; Conc. 3.125 µM): 100%
Average of Relative viability of cells (%) ([4]; Conc. 6.25 µM): 94.7%
Average of Relative viability of cells (%) ([4]; Conc. 12.5 µM): 72.4%
Average of Relative viability of cells (%) ([4]; Conc. 25 µM): 61.3%
Average of Relative viability of cells (%) ([4]; Conc. 50 µM): 47.6%
Average of Relative viability of cells (%) ([4]; Conc. 100 µM): 33.9%
IC50 ([4]; read-out: In-vitro cytotoxicity IC50 (µM) MCF-7, MCF-7, mean ± SD, n = 3): 45.1 ± 2.9 µM
Average of Relative viability of cells (%) ([5]; Hela, Conc. 1.56 µM): 100%
Average of Relative viability of cells (%) ([5]; Hela, Conc. 3.125 µM): 100%
Average of Relative viability of cells (%) ([5]; Hela, Conc. 6.25 µM): 97.1%
Average of Relative viability of cells (%) ([5]; Hela, Conc. 12.5 µM): 75.9%
Average of Relative viability of cells (%) ([5]; Hela, Conc. 25 µM): 64.8%
Average of Relative viability of cells (%) ([5]; Hela, Conc. 50 µM): 50.7%
Average of Relative viability of cells (%) ([5]; Hela, Conc. 100 µM): 36.1%
IC50 ([5]; Hela, mean ± SD, n = 3): 51.4 ± 3.1 µM
Average of Relative viability of cells (%) ([6]; PC3, Conc. 1.56 µM): 100%
Average of Relative viability of cells (%) ([6]; PC3, Conc. 3.125 µM): 100%
Average of Relative viability of cells (%) ([6]; PC3, Conc. 6.25 µM): 100%
Average of Relative viability of cells (%) ([6]; PC3, Conc. 12.5 µM): 92.8%
Average of Relative viability of cells (%) ([6]; PC3, Conc. 25 µM): 71.9%
Average of Relative viability of cells (%) ([6]; PC3, Conc. 50 µM): 59.5%
Average of Relative viability of cells (%) ([6]; PC3, Conc. 100 µM): 37.5%
IC50 ([6]; PC3, mean ± SD, n = 3): 65 ± 3.2 µM

C/C(=N\NC(=O)Nc1ccc(Cl)cc1)c1cc2ccccc2o1 [Compound 7, (E)-2-[1-(benzofuran-2-yl)ethylidene]-N-(4-chlorophenyl)hydrazine-1-carboxamide]
viability at 1.56 µM ([1]; Homo sapiens, Conc. 1.56 µM): 100%
viability at 3.125 µM ([1]; Homo sapiens, Conc. 3.125 µM): 100%
viability at 6.25 µM ([1]; Homo sapiens, Conc. 6.25 µM): 99.7%
viability at 12.5 µM ([1]; Homo sapiens, Conc. 12.5 µM): 87.4%
viability at 25 µM ([1]; Homo sapiens, Conc. 25 µM): 72.5%
viability at 50 µM ([1]; Homo sapiens, Conc. 50 µM): 60.2%
viability at 100 µM ([1]; Homo sapiens, Conc. 100 µM): 48.1%
IC50 ([1]; Homo sapiens): 81.6 ± 3.9 µM
viability at 1.56 µM [7, 8]: 100%
viability at 3.125 µM [7, 8]: 100%
viability at 6.25 µM [7, 8]: 100%
viability at 12.5 µM [7, 8]: 100%
viability at 25 µM [7, 8]: 89.3%
viability at 50 µM [7, 8]: 76.2%
viability at 100 µM [7, 8]: 55.5%
IC50 [2, 9]: > 100 µM
anticancer activity towards the four / all assessed cell lines (grade) [3]: weak (51–100 (weak))
melting point: 235 to 237 °C
viability at 1.56 µM ([4]; Homo sapiens): 100%
viability at 3.125 µM ([4]; Homo sapiens): 100%
viability at 6.25 µM ([4]; Homo sapiens): 97.6%
viability at 12.5 µM ([4]; Homo sapiens): 88.9%
viability at 25 µM ([4]; Homo sapiens): 70.2%
viability at 50 µM ([4]; Homo sapiens): 58%
viability at 100 µM ([4]; Homo sapiens): 47.8%
IC50 [4, 10]: 76.9 ± 3.8 µM
viability at 1.56 µM ([5]; Homo sapiens, HeLa): 100%
viability at 3.125 µM ([5]; Homo sapiens, HeLa): 100%
viability at 6.25 µM ([5]; Homo sapiens, HeLa): 93.8%
viability at 12.5 µM ([5]; Homo sapiens, HeLa): 80.7%
viability at 25 µM ([5]; Homo sapiens, HeLa): 68.4%
viability at 50 µM ([5]; Homo sapiens, HeLa): 56.3%
viability at 100 µM ([5]; Homo sapiens, HeLa): 42.9%
IC50 ([5]; Homo sapiens, HeLa): 66 ± 3.2 µM
viability at 1.56 µM ([6]; Homo sapiens): 100%
viability at 3.125 µM ([6]; Homo sapiens): 100%
viability at 6.25 µM ([6]; Homo sapiens): 100%
viability at 12.5 µM ([6]; Homo sapiens): 93.6%
viability at 25 µM ([6]; Homo sapiens): 76.5%
viability at 50 µM ([6]; Homo sapiens): 64.8%
viability at 100 µM ([6]; Homo sapiens): 50.9%
IC50 ([6]; Homo sapiens): 93.9 ± 4.7 µM

COc1ccc(/C=N/N=C(\C)c2cc3ccccc3o2)cc1OC [Compound 9, (E)-1-[1-(benzofuran-2-yl)ethylidene]-2-((E)-3,4-dimethoxybenzylidene)hydrazine]
viability at 1.56 µM ([1]; Homo sapiens, Conc. 1.56 µM): 100%
viability at 3.125 µM ([1]; Homo sapiens, Conc. 3.125 µM): 94.4%
viability at 6.25 µM ([1]; Homo sapiens, Conc. 6.25 µM): 78.2%
viability at 12.5 µM ([1]; Homo sapiens, Conc. 12.5 µM): 60.5%
viability at 25 µM ([1]; Homo sapiens, Conc. 25 µM): 49.6%
viability at 50 µM ([1]; Homo sapiens, Conc. 50 µM): 36.8%
viability at 100 µM ([1]; Homo sapiens, Conc. 100 µM): 26.2%
IC50 ([1]; Homo sapiens): 26.4 ± 2.1 µM
viability at 3.125 µM [7, 8]: 100%
viability at 1.56 µM [7, 11]: 100%
viability at 6.25 µM [7, 11]: 99.7%
viability at 12.5 µM [7, 11]: 85.2%
viability at 25 µM [7, 11]: 74.5%
viability at 50 µM [7, 11]: 60.6%
viability at 100 µM [7, 11]: 47.9%
IC50 [2, 9]: 82.3 ± 4.3 µM
IC50 ([3]; Homo sapiens, Hela and PC3, one range for 9 and 10 together, read-out: IC50 values range against Hela and PC3 cell line): 13.8 to 32.1 µM
melting point: 130 to 132 °C
viability at 1.56 µM ([4]; Homo sapiens): 100%
viability at 3.125 µM ([4]; Homo sapiens): 96%
viability at 6.25 µM ([4]; Homo sapiens): 79.5%
viability at 12.5 µM ([4]; Homo sapiens): 64.2%
viability at 25 µM ([4]; Homo sapiens): 50.6%
viability at 50 µM ([4]; Homo sapiens): 38.2%
viability at 100 µM ([4]; Homo sapiens): 25.3%
IC50 [4, 10]: 28.1 ± 2.3 µM
viability at 1.56 µM ([5]; Homo sapiens, HeLa): 100%
viability at 3.125 µM ([5]; Homo sapiens, HeLa): 92%
viability at 6.25 µM ([5]; Homo sapiens, HeLa): 73.2%
viability at 12.5 µM ([5]; Homo sapiens, HeLa): 50.4%
viability at 25 µM ([5]; Homo sapiens, HeLa): 37.1%
viability at 50 µM ([5]; Homo sapiens, HeLa): 28.2%
viability at 100 µM ([5]; Homo sapiens, HeLa): 20.3%
IC50 ([5]; Homo sapiens, HeLa): 17 ± 1.4 µM
viability at 1.56 µM ([6]; Homo sapiens): 100%
viability at 3.125 µM ([6]; Homo sapiens): 96.1%
viability at 6.25 µM ([6]; Homo sapiens): 75.8%
viability at 12.5 µM ([6]; Homo sapiens): 60.2%
viability at 25 µM ([6]; Homo sapiens): 52.6%
viability at 50 µM ([6]; Homo sapiens): 44.8%
viability at 100 µM ([6]; Homo sapiens): 31.2%
IC50 ([6]; Homo sapiens): 32.1 ± 2.2 µM
